Consider 16 molecules from ChEMBL document CHEMBL2040837, “Synthesis and cytotoxic activity of some 17-picolyl and 17-picolinylidene androstane derivatives” (Eur J Med Chem, 2012).

For one experiment, the system named is HeLa. The experiment can be described thus: Cytotoxicity against human HeLa cells […] by SRB assay. It is filed as functional, cell-based.
A further experiment has as its system HT-29. The experiment can be described thus: Cytotoxicity against human HT-29 cells […] by SRB assay. Type of experiment: functional, cell-based. In general terms: In SRB staining, fixed cells bind dye roughly in proportion to their protein.
A further experiment has as its system MRC5. The experiment can be described thus: Cytotoxicity against human MRC5 cells […] by SRB assay. Type of experiment: cell-based.
The next experiment has as its system PC-3. Briefly: Cytotoxicity against AR-negative human PC3 cells after 48 hr by SRB assay. The settings on record: PC-3, 48 h.
For another experiment, the system named is MCF7. The experiment can be described thus: Cytotoxicity against ER-positive human MCF7 cells after 48 hr by SRB assay. The settings on record: MCF7, 48 h.
The subject of experiment [1] is MDA-MB-231. Briefly: Cytotoxicity against ER-negative human MDA-MB-231 cells after 48 hr by SRB assay. The settings on record: for IC50: MDA-MB-231, 48 h.
Experiment [2] has as its system MDA-MB-231. Briefly: Cytotoxicity against ER-negative human MDA-MB-231 cells at <1 uM after 48 hr by SRB assay.
In experiment [3] the test system is MDA-MB-231. The experiment can be described thus: Ratio of 17alpha-picolyl-androst-5-en 3beta, 17beta-diol IC50 to compound IC50 cytotoxicity against ER-negative human MDA-MB-231 cells after 48 hr by SRB assay.

Molecules are shown by their SMILES.

As to `COc1cccc2c1C(=O)c1c(O)c3c(c(O)c1C2=O)C[C@@](O)(C(=O)CO)C[C@@H]3O[C@H]1C[C@H](N)[C@H](O)[C@H](C)O1` [DOXORUBICIN], the IC50 in the experiment on HeLa turned out to be 1.17 µM; in the experiment on HT-29, 0.32 µM; with MRC5, 0.12 µM; with PC-3, 95.6 µM; in the experiment with MCF7 it was 0.75 µM; with MDA-MB-231 [1], 0.12 µM. In the experiment with MDA-MB-231 [1], the Activity result was “Dose-dependent effect”.

For `COC1=C2CC[C@@H]3[C@H](CC[C@]4(C)/C(=C/c5ccccn5)CC[C@@H]34)[C@@]2(C)CCC1=O`, the IC50 is 15.3 µM in the experiment on HeLa; 56 µM in the experiment on HT-29; over 100 µM in the experiment with MRC5; 34.1 µM in the experiment with PC-3; over 100 µM in the experiment with MCF7; 4.1 µM in the experiment with MDA-MB-231 [1]. Also, the figures for the Activity entry in the experiment with MDA-MB-231 [1] and with MDA-MB-231 [2] were “Dose-dependent effect” and 10%, respectively.

As to `CC(=O)O[C@@H]1C=C2CC[C@@H]3[C@H](CC[C@@]4(C)[C@H]3CC[C@@]4(O)Cc3ccccn3)[C@@]2(C)CC1`, the IC50 with HeLa was over 100 µM; with HT-29, 10.6 µM; with MRC5 it was over 100 µM; in the experiment on PC-3 it was 31.3 µM; in the experiment with MCF7, over 100 µM; with MDA-MB-231 [1], 10.2 µM. The Activity entry in the experiment with MDA-MB-231 [1] was “Dose-dependent effect”.

For `C[C@]12CC[C@H](O)C=C1CC[C@@H]1[C@@H]2CC[C@]2(C)/C(=C/c3ccccn3)CC[C@@H]12`, the half-maximal inhibitory concentration (IC50) in the experiment with MRC5 is over 100 µM; in the experiment with PC-3, 10.1 µM; with MCF7, over 100 µM; in the experiment on MDA-MB-231 [1] it was over 100 µM. Further, in the experiment with MDA-MB-231 [1], the Activity entry was “Dose-dependent effect”.

On to `C[C@]12CCC(=O)C(O)=C1C=C[C@@H]1[C@@H]2CC[C@]2(C)/C(=C/c3ccccn3)CC[C@@H]12`, for which the half-maximal inhibitory concentration (IC50) was over 100 µM in the experiment with MRC5, over 100 µM in the experiment with PC-3, over 100 µM in the experiment on MCF7 and 9.3 µM in the experiment on MDA-MB-231 [1]. The Activity entry with MDA-MB-231 [1] was “Dose-dependent effect”.

For `C[C@]12CC[C@H](O)C=C1CC[C@@H]1[C@@H]2CC[C@@]2(C)[C@H]1CC[C@@]2(O)Cc1ccccn1`, the IC50 was 26.9 µM in the experiment on HeLa; over 100 µM with HT-29; over 100 µM with MRC5; 22.3 µM in the experiment with PC-3; over 100 µM in the experiment with MCF7; 3.8 µM in the experiment with MDA-MB-231 [1]. In the experiment on MDA-MB-231 [1], the Activity result is “Dose-dependent effect”.

Consider `C[C@]12CCC(=O)C(O)=C1CC[C@@H]1[C@@H]2CC[C@]2(C)C(=O)CC[C@@H]12` [FORMESTANE], for which the IC50 is 5.55 µM in the experiment on HeLa; over 100 µM in the experiment on HT-29; over 100 µM with MRC5; 48.4 µM in the experiment on PC-3; over 100 µM in the experiment on MCF7; 55.5 µM in the experiment with MDA-MB-231 [1]. Moreover, the Activity result with MDA-MB-231 [1] is “Dose-dependent effect”.

As to `C[C@]12CC[C@H](O)CC1=CC[C@@H]1[C@@H]2CC[C@@]2(C)[C@H]1CC[C@@]2(O)Cc1ccccn1`, the IC50 was over 100 µM in the experiment with MRC5, 6.3 µM in the experiment on PC-3, over 100 µM with MCF7 and 96.1 µM in the experiment with MDA-MB-231 [1]. In addition, the Activity result in the experiment on MDA-MB-231 [1] was “Dose-dependent effect”.

Turning to `C[C@]12CCC(=O)C(O)=C1C=C[C@@H]1[C@@H]2CC[C@@]2(C)[C@H]1CC[C@@]2(O)Cc1ccccn1`, the IC50 was 36.6 µM with HeLa; over 100 µM with HT-29; over 100 µM in the experiment on MRC5; 25.6 µM in the experiment with PC-3; 3.6 µM with MCF7; 1.2 µM in the experiment with MDA-MB-231 [1]. In addition, the Activity entry in the experiment on MDA-MB-231 [1] was “Dose-dependent effect”.

For the molecule `C[C@]12CC[C@H](O)[C@H](O)C1=CC[C@@H]1[C@@H]2CC[C@@]2(C)[C@H]1CC[C@@]2(O)Cc1ccccn1`, the IC50 was 26.6 µM with HeLa; 8 µM in the experiment with HT-29; over 100 µM in the experiment on MRC5; 52.1 µM in the experiment with PC-3; over 100 µM in the experiment on MCF7; 9 µM with MDA-MB-231 [1]. Moreover, the Activity result in the experiment on MDA-MB-231 [1] was “Dose-dependent effect”. Also, the “Ratio IC50” value with MDA-MB-231 [3] is 10.

For `C[C@]12CC[C@H]3[C@@H](C[C@@H]4O[C@@]45C[C@@H](O)CC[C@]35C)[C@@H]1CC[C@@]2(O)Cc1cccc[n+]1[O-]`, the IC50 with HeLa was 33.5 µM; with HT-29 it was 25.8 µM; with MRC5 it was over 100 µM; with PC-3, 33.6 µM; in the experiment with MCF7 it was over 100 µM; in the experiment on MDA-MB-231 [1] it was 7.5 µM. Further, the Activity result in the experiment on MDA-MB-231 [1] is “Dose-dependent effect”.

`C[C@]12CCC=CC1=CC[C@@H]1[C@@H]2CC[C@]2(C)/C(=C/c3ccccn3)CC[C@@H]12`: the IC50 in the experiment with HeLa was 23.3 µM; in the experiment with HT-29, 1.8 µM; in the experiment on MRC5, over 100 µM; with PC-3 it was 19.9 µM; in the experiment with MCF7, 55.8 µM; in the experiment on MDA-MB-231 [1] it was 4.6 µM. In addition, the Activity result in the experiment on MDA-MB-231 [1] is “Dose-dependent effect”.

Take `C[C@]12CCC=CC1=CC[C@@H]1[C@@H]2CC[C@@]2(C)[C@H]1CC[C@@]2(O)Cc1ccccn1`: the IC50 was 27.5 µM in the experiment on HeLa; 11.7 µM in the experiment with HT-29; over 100 µM in the experiment with MRC5; 24.7 µM in the experiment on PC-3; 17.4 µM with MCF7; 2.3 µM with MDA-MB-231 [1]. In addition, the Activity entry in the experiment on MDA-MB-231 [1] was “Dose-dependent effect”.

On to `C[C@]12CCC(=O)C=C1C(=O)C[C@@H]1[C@@H]2CC[C@@]2(C)[C@H]1CC[C@@]2(O)Cc1ccccn1`, for which the IC50 in the experiment on HeLa is over 100 µM; in the experiment on HT-29, over 100 µM; in the experiment with MRC5 it was over 100 µM; in the experiment with PC-3, 4.3 µM; in the experiment on MCF7 it was over 100 µM; in the experiment on MDA-MB-231 [1], over 100 µM. In addition, the Activity entry with MDA-MB-231 [1] was “Dose-dependent effect”.

Take `COC1=C2CC[C@@H]3[C@H](CC[C@@]4(C)[C@H]3CC[C@@]4(O)Cc3ccccn3)[C@@]2(C)CCC1=O`: the IC50 in the experiment on HeLa was 19.1 µM; with HT-29 it was over 100 µM; in the experiment on MRC5, over 100 µM; with PC-3 it was 54.8 µM; with MCF7, over 100 µM; with MDA-MB-231 [1], 42.6 µM. In addition, the Activity entry in the experiment with MDA-MB-231 [1] was “Dose-dependent effect”.

Regarding `C[C@]12CC[C@H](O)[C@@H](O)C1=CC[C@@H]1[C@@H]2CC[C@@]2(C)[C@H]1CC[C@@]2(O)Cc1ccccn1`, the half-maximal inhibitory concentration (IC50) with HeLa is 21.3 µM; in the experiment with HT-29 it was 2.6 µM; in the experiment with MRC5, over 100 µM; in the experiment with PC-3, 21.3 µM; with MCF7, over 100 µM; in the experiment on MDA-MB-231 [1] it was 5.6 µM. Moreover, the Activity entry in the experiment with MDA-MB-231 [1] was “Dose-dependent effect”. In addition, the “Ratio IC50” value in the experiment with MDA-MB-231 [3] was found to be 17.

Usually IC50 stands for the concentration needed to halve the response being measured. High values mean lower potency, low ones higher potency.
